Columns and labels:
water solubility = type: physicochemical
[1] = solubility of the free base in solvents; type: physicochemical; settings: free base form
Method: For example, acetone is needed to dissolve the free base at 50° C. […] HCl, phosphoric acid, tartaric acid, acetic acid, D-glucoronic acid and succinic acid were used to prepare pharmaceutically acceptable salts of compound 3. One crystalline form of compound 3 as a mono-succinate salt and five crystalline polymorphs of compound 3 as a hemi-succinate salt are provided in the Examples.

| Compound | Solubility in water (water solubility; free base, thermogravimeteric method) | solubility in THF, DMSO and DMF [1] | solubility in group 3 solvents, including water [1] | water solubility (stated in words) (water solubility) |
| --- | --- | --- | --- | --- |
| COc1ccc(-c2ccnc(Nc3ccc(S(=O)(=O)NCCCN(C)C)cc3)n2)cc1F [Compound 3, N-(3-(dimethylamino)propyl)-4-(4-(3-fluoro-4-methoxyphenyl)pyrimidin-2-ylamino)benzenesulfonamide] | not detectable | high | low | – |
| COc1ccc(-c2ccnc(Nc3ccc(S(=O)(=O)NCCCN(C)C)cc3)n2)cc1F.O=C(O)CCC(=O)O [Example 1, Mono-Succinate Salt of N-(3-(dimethylamino)propyl)-4-(4-(3-fluoro-4-methoxyphenyl)pyrimidin-2-ylamino)benzenesulfonamide] | – | – | – | water soluble |
